# Experiment: gradient 5% acetonitrile 3 min, to 50% in 2 min, to 85% in 15 min, held 3 min, 100 µL/min
# Details: column: Zorbax Extend-C18 2.1 x 50 mm; eluents: water / acetonitrile, 0.1% formic acid
# Procedure, shortened: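 Retention times come from adduct peaks that were picked computationally and then checked by hand. The standards, pure and pooled in mixtures of ~100 molecules, were run on a Zorbax Extend-C18 column (2.1 × 50 mm, 1.8 μm) at 100 μL/min with water and acetonitrile, each with 0.1% formic acid. Detection was by quadrupole time-of-flight mass spectrometry in positive and negative ionization mode, with a dead volume of 40 μL and a dwell volume of 900 μL.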
row,SMILES,RP-LC retention time [s]
1,COc1cccc(-c2nnc(N)o2)c1,674
2,Cc1ccc(CNC(=O)c2nc(-c3oc4c(C)cccc4c3C)no2)o1,1080
3,CCc1nc2cc(-c3noc(-c4nccc5ccccc45)n3)ccc2o1,1130
4,Cc1cc(C2CCCN2C(=O)Nc2ccccc2C(F)(F)F)on1 (stereo not given),812
5,COc1ccc(-c2nsc(SCC(=O)N3CCCc4ccccc43)n2)cc1,1110
6,Cc1ccc(-c2csc3c(=O)n(Cc4cc(=O)n5ccccc5n4)cnc23)cc1,847
7,COc1ccc2c(c1)C1(CCN(C(=O)NCc3ccc(F)cc3)C1)C(=O)N2 (stereo not given),697
8,Cc1noc2nc(CCC(=O)NC(C)c3ccccc3)nc(N3CCC(C)CC3)c12 (stereo not given),941
9,CC1=NS(=O)(=O)N(C)C=C1C(=O)OCc1nc(-c2ccc(F)cc2)no1,952
10,Cc1nc(C)c(C(=O)N2CCC(C(=O)N3CCCCCCNC(=O)CC3)CC2)s1,602
11,CN(C)C(=O)c1ccc2c(c1)N(CC(=O)NCCCc1ccccc1)C(=O)CS2,726
12,O=C(CN1C(=O)CCSc2ccccc21)Nc1ccc2c(c1)OCO2,627
13,Cc1ccc(-c2cc3c4nnc(CCC(=O)N5CCN(C(=O)c6ccco6)CC5)n4ccn3n2)cc1C,759
14,C=C1/C(=C/C=C2/CCC[C@]3(C)[C@@H]([C@H](C)CCCC(C)C)CC[C@@H]23)C[C@@H](O)C[C@@H]1O,1220
15,CC1(C(=O)NCc2ccccc2)CCCN(S(=O)(=O)c2ccccc2Cl)C1 (stereo not given),946
16,Cc1ccccc1-c1noc(Cn2ccn(-c3ccc(Cl)cc3)c(=O)c2=O)n1,918
17,CCOC(=O)C1=C(CN2CC(C)CC(C)C2)NC(=O)NC1c1ccc(Cl)cc1 (stereo not given),688
18,Cc1cc(C)cc(NC(=O)N2CCN(CCn3c(-c4ccncc4)nc4cccnc43)CC2)c1,627
19,Cc1nc2cc(-c3noc(Cc4ccc(Br)cc4)n3)ccc2n(C)c1=O,1020
20,O=C(CCCc1ccccc1)N1CCCC1c1nc(-c2ccccc2)no1 (stereo not given),694

row,SMILES,RP-LC retention time [s]
1,CCOC(=O)C1=CN(Cc2ccccc2)C=C(C(=O)OCC)C1c1ccccc1,1130
2,COc1ccc(CN2CC[C@]3(CO)CN(Cc4ccccc4)C[C@@H]3C2)c(Cl)c1OC,579
3,CCN1CC(c2nc(-c3ccccc3)no2)C2(CCCC2)C1 (stereo not given),709
4,COc1ccc(-c2noc(-c3nc(Cc4ccccc4)no3)n2)cc1,1170
5,CC(C)N1C(=O)C2(CCCC2)C1C(=O)NCC1CCCCC1 (stereo not given),775
6,Cn1cc(CN2CCC(C(=O)NCCN3CCN(c4ccccc4)CC3)CC2)c2ccccc21,571
7,O=C(NC1(c2nc(-c3ccccc3)no2)CCCCC1)c1ccc(Br)cc1,1240
8,COc1ccc(C(=O)NC2CCN(c3cc(-c4cccs4)[nH]n3)C2)cc1 (stereo not given),703
9,Fc1ccc(Cc2nc(-c3ccnc(N4CCCC4)c3)no2)cc1,708
10,O=C(COc1ccccc1F)NCCS(=O)(=O)N1CCN(c2ncccn2)CC1,716
11,COc1ccc(C(=O)N2CC(F)(F)C[C@H]2COc2ccc3c(c2)CCC3)cn1,1150
12,O=C(c1ccc(Cl)cc1)N1CCN(c2nc(CN3CCCCC3)cs2)CC1,808
13,Fc1ccc(Cc2nc3nccc(-c4ccsc4)n3n2)cc1,905
14,O=C(NCC1CCOCC1)Nc1ccccc1C(F)(F)F,734
15,O=C(C1CCCN(c2ncnc3c2nc2n3CCCCC2)C1)N1CCCc2ccccc21 (stereo not given),888
16,CSc1cccc2sc(NC(=O)C3CCN(S(C)(=O)=O)CC3)nc12,779
17,O=C(NCC1CCCO1)C1CCCN(c2ccnc(-c3ccccc3)n2)C1 (stereo not given),571
18,Cc1cc(N2CCCC2)n2nc(CN(C)Cc3ccccc3)nc2n1,593
19,O=C(C1CC(=O)N(c2ccc3c(c2)CCN3C(=O)C2CCC2)C1)N1CCCCC1 (stereo not given),760
20,O=C(NCc1ccc(F)cc1)C1CCN(S(=O)(=O)c2ccc3[nH]c(=O)sc3c2)CC1,742

row,SMILES,RP-LC retention time [s]
1,O=C(Nc1ccc(-c2cn3cccnc3n2)cc1)c1cccc(Cl)c1,664
2,Cc1cccc(C)c1NC(=O)N1CCC(c2cc(N)on2)CC1,660
3,CC1CCCN(CCCNC(=O)CCCn2c(=O)c3cccn3c3ccc(F)cc32)C1 (stereo not given),650
4,CC(CCc1ccccc1)NC(=O)C1CCN(C(=O)C2Sc3ccccc3NC2=O)CC1 (stereo not given),811
5,Cc1cc(C(=O)NCc2ccc(Cl)cc2)n(-c2ccccc2)n1,878
6,COc1cccc(C2CC(c3ccc(F)cc3)=NC3(CCN(C(C)C)CC3)N2)c1O (stereo not given),608
7,CC(C)C(=O)NCc1cnn(-c2ccc(C(=O)Nc3ccc4c(c3)OCCO4)cc2)c1,733
8,Cc1cc(C)n2nc(-c3ccccc3)c(C)c2n1,906
9,CN(Cc1ccco1)C(=O)c1ccc(-n2cc(CNC(=O)C3CCC3)cn2)cc1,672
10,Cc1nc(C2CCOCC2)n(C2CCN(S(=O)(=O)c3ccc(Cl)cc3C)C2)n1 (stereo not given),771
11,CN(C)CCNC(=O)COc1ccccc1-c1nnc(-c2ccccc2)o1,659
12,Cc1cc2ncn(S(=O)(=O)N3CCCC3)c2cc1C,837
13,Cc1ccccc1Oc1nccnc1N1CCCC(C(=O)NCc2ccc(Br)cc2)C1 (stereo not given),960
14,Cc1ccc(N2CCC(NC(=O)Cc3ccc(Cl)cc3)C2=O)cc1C (stereo not given),946
15,O=S(=O)(c1ccc(Cl)s1)N1CCN(c2ccc(-n3ccnc3)nn2)CC1,593
16,COc1cc(-c2nc3ccccn3c2Nc2ccccc2C)ccc1O,650
17,Cc1ccc(NC(=O)CCc2ccc3nc[nH]c3c2)cc1Cl,646
18,O=C(Nc1cccnc1)C1CCN(S(=O)(=O)Cc2ccccc2)CC1,626
19,CN(C)c1cccc(C(=O)Nc2cnn(-c3ncc(N4CCCC4)cn3)c2)c1,749

# Second part, the compound after the results:
row,RP-LC retention time [s],SMILES
1,580,Cc1noc2ncnc(NCCN(C)Cc3ccccc3)c12
2,1040,CCOc1ccc(-c2ccc(=O)n(CCc3nc(-c4cccc(F)c4)no3)n2)cc1
3,756,COc1cccc(CNC(=O)Cn2ccc3ccc(-c4nnc(C)o4)cc32)c1
4,616,CN(C)CCNC(=O)c1ccc2c(c1)N(Cc1ccc(F)cc1)C(=O)CO2
5,975,CCCn1nccc1-c1csc(S(=O)(=O)NC(C)(C)CC)c1
6,802,CCn1c(=O)c(C(=O)NCc2cc(F)ccc2F)nc2cccnc21
7,579,CN(C)C(=O)c1csc(S(=O)(=O)N2CCC(C(=O)NCc3cccnc3)CC2)c1
8,788,CCn1nccc1C(=O)NC1CCN(C2=NS(=O)(=O)C(c3ccc(F)cc3)=C2C)CC1
9,886,COc1ccc(-c2c(C)noc2NC(C)=O)cc1S(=O)(=O)NCCC1=CCCCC1
10,724,Cc1nnc2ccc(S(=O)(=O)Nc3cccc(Cl)c3)cn12
11,603,NS(=O)(=O)c1ccc(CCNC(=O)c2coc(NC(=O)c3cccs3)n2)cc1
12,1280,Cc1ccc(NC(=O)Cc2c(C)nn(-c3nc(-c4ccc(Cl)cc4)cs3)c2C)c(C)c1
13,666,CCn1c(CCNC(=O)c2cc(C)cc(C)c2)nc2cccnc21
14,830,COc1ccccc1-c1nnc(-c2ccc(OC)c(S(=O)(=O)N3CCCC3)c2)o1
15,781,Cc1cccc(CNC(=O)C2CCCN(S(=O)(=O)c3cn(C(C)C)cn3)C2)c1 (stereo not given)
16,668,CCOc1ccc(N2CC(CNC(=O)Nc3cc(OC)c(OC)c(OC)c3)CC2=O)cc1 (stereo not given)

row,RP-LC retention time [s],SMILES
1,894,CN1C(=O)C(C)(C(=O)Nc2ccc(Cl)cc2F)Oc2cccnc21 (stereo not given)
2,656,Cc1cnc(C2CN(S(=O)(=O)c3cccc(F)c3)C2)n1CC1CC1
3,817,CCOC(=O)CC(=O)Nc1nnc(SCc2nnc(-c3ccccc3C)o2)s1
4,765,CCS(=O)(=O)N1CCC(C(=O)NCCc2csc(-c3ccccc3)n2)CC1
5,592,Cc1nn(C(C)C(=O)NCCCN2CCN(C)CC2)c(=O)c2c(C)n(-c3ccccc3)nc12 (stereo not given)
6,848,O=C(c1ccncc1)N1CCc2cc(-c3csc(C4CC4)n3)ccc21
7,800,CCOC(=O)c1[nH]c(C)c(CCC(=O)N2CCC(C(=O)NCc3ccccc3OC)CC2)c1C
8,764,CCOC(=O)c1c(S(=O)(=O)N2CCC(C(=O)NCc3ccc(C)o3)CC2)c(C)n(C)c1C
9,1080,CCCn1c(=O)c(C)nc2cc(-c3noc(-c4ccc(C#N)cc4)n3)ccc21
10,882,COc1ccc(S(=O)(=O)Cc2nc(-c3ccccc3C)no2)cc1OC
11,578,CC(C)NC(=O)C1Cn2cccc2C(=O)N1 (stereo not given)
12,950,Cc1ccc(-c2nnc(-c3ccccc3)o2)cc1S(=O)(=O)N(C)C
13,810,Cc1ccc(S(=O)(=O)N2CCCC(C(=O)Nc3nnc(Cc4cccs4)o3)C2)cc1 (stereo not given)
14,976,CCCCn1cc(S(=O)(=O)Nc2cccc(C)c2)c2cccnc21
15,700,COc1ccc(CCNC(=O)CSc2nnc(NC(=O)CC(C)C)s2)cc1OC

# Source: the METLIN SMRT retention time set (Domingo-Almenara et al. 2019)
